In patent US20220401385A1, “Combination Therapy Based on PD-1 Signaling Inhibitors” (Kyoto University, priority 2019, published 2022):

Assays:
LLC cells = test: LLC tumor model; type: in vivo, C57BL/6 mice; conditions: SPD 4 mg/kg + PD-L1 antibody
Experimental: FIG. 2-2 a-b) MethA or CT26 cells were intradermally inoculated into BALB/c mice. Ten days after inoculation, PD-L1 antibody (2 mg/kg), PD-L1 antibody+SPD (1 mg/kg for Meth A, 4 mg/kg for CT26) or SPD alone was administered. c) LLC cells were intradermally inoculated into C57BL/6 mice. Ten days after inoculation, mice were treated in the same manner as described in a-b) above. SPD was administered at 4 mg/kg. d) MC38 cells were inoculated into C57BL/6 Rag2^−/− mice. Ten days after inoculation, mice were treated in the same manner as described in a-b) above. SPD was administered at 5 mg/kg. Tumor growth curve and survival curve are shown.

CD44 high CD8+ T cells [1] = test: Cell proliferation by 3H uptake in vitro, CD44 high cells; type: cell-based, mice; conditions: SPD 0.2 μM, 24 hours
Experimental: FIG. 4 CD8^+ T cells were isolated from the spleen of mice without tumor inoculation, and further isolated into CD44^+ (CD44 high) and CD44^− (CD44 low) cell populations. a) CD44 low cells were simulated with CD3/CD28 antibody beads and SPD (0.2 μM). After 30 minutes, 1 hour, 2 hours and 72 hours, OCR was measured with a Seahorse analyzer. b) At the same time, total ATP production and glycolytic pathway-derived or mitochondrial activity-derived ATP production were calculated at 30-minute, 1-hour and 2-hour. c) CD44 low cells (2×10^5 cells) were stimulated with CD3/CD28 antibody beads and SPD (0.2 μM). After 24 hours, cell proliferation was examined by means of 3H uptake. d) Spare respiratory capacity (SRC) was calculated from the OCR measurement after 72 hours in a), and results with and without SPD were compared. e) CD44 low cells were stimulated with CD3/CD28 antibody beads and SPD (0.2 μM). After 24 hours, frequencies between apoptotic and viable cells were calculated by PI and Annexin staining. f-j) CD44 high cells were analyzed under the same conditions and by the same methods as described in a-e) above. As regards statistical analysis, t-test was used for comparison of two groups, and ANOVA was used for comparison of three or more groups. * p<0.05, ** p<0.01, *** p<0.001, **** p<0.0001.

CD44 high CD8+ T cells [2] = test: Observation of mitochondria under electron microscope, CD44 high cells; type: cell-based, mice; conditions: SPD 0.2 μM, 1 hour
Experimental: FIG. 5 CD8^+ T cells were isolated from the spleen of mice without tumor inoculation, and further isolated into CD44^+ (CD44 high) and CD44^− (CD44 low) cell populations. a) CD44 low cells were simulated with CD3/CD28 antibody beads and SPD (0.2 μM). […] Protein expression levels after 1 hour and 2 hours were confirmed by western blotting with the respective indicated antibodies. As regards statistical analysis, t-test was used for comparison of two groups. * p<0.05, ** p<0.01, *** p<0.001, **** p<0.0001.
CD8^+ T cells (2×10^5) were stimulated with 0.2 μM spermidine for 1 hour. Then, cells were harvested, embedded in Ipgell (GenoStaff) and fixed with 4% paraformaldehyde and 2% glutaraldehyde. Images were taken with a transmission electron microscope (TEM). Mitochondrial size was determined with ImageJ software. As regards mitochondrial number, average numbers in single cell were determined with Prism software. Blind testing was used for observation and analysis of mitochondria.

MC38 cells = test: MC38 therapy model in aged mice, tumor growth and survival; type: in vivo; conditions: 56-week old mice; combination PD-L1 antibody (2 mg/kg) + SPD (2 mg/kg)
Experimental: (§1) FIG. 7 MC38 cells (5×10^5) were intradermally inoculated into 56-week old mice, which were treated along with the treatment schedule described in FIG. 1. PD-L1 antibody (2 mg/kg) and SPD (2 mg/kg) were used. a) Tumor growth curve and survival curve are shown. b) The frequency of CD8^+ T cells among lymphocytes infiltrating into tumor (in CD45^+ gate) and the absolute number of CD8^+ T cells per mg tumor 13 days after tumor inoculation are shown. c) CD8^+ T cells were isolated from spleen cells on the same schedule as b) and cultured for 20 hours under the stimulation with CD3/CD28. Cell proliferation was examined by means of ^3H uptake. d) CD8^+ T cells were isolated from draining lymph nodes on the same schedule as b) and glycolytic pathway-derived or mitochondrial metabolism-derived ATP production was calculated by Seahorse. e) Spare respiratory capacity (SRC) was also calculated in the experiment (d).
MC38 cells (5×10^5) were intradermally injected on the right flank. […] Tumors were measured on every alternate day, and tumor volumes were calculated using the formula for typical ellipsoid, π×(length×breadth×height/6).
It is known from mouse model experiments that the effect of PD-1 inhibitory antibody therapy decreases in aged mice due to their decreased immunity. […] Spare respiratory capacity (SRC) was also calculated. […]

CD8+ T cells = test: Seahorse ATP production and SRC of draining lymph node CD8+ T cells of treated aged mice; type: in vivo; conditions: 56-week old mice, SPD combination treatment group
Experimental: as §1
Oxygen consumption rates were measured using an XF96 Extracellular Flux Analyzer (Seahorse Bioscience). CD8^+ T cells (4×10^5) per well were seeded in a determined XF96 plate. […] In brief, basal OCR measurement was performed […] sequential addition of oligomycin, FCCP, and rotenone/antimycin A. SRC and ATP production rates were calculated by the following formulas: […]

NCCCCNCCCN [SPD, spermidine]
antitumor effect of PD-1 inhibitory antibody with SPD (LLC cells): exhibit the antitumor effect
cell proliferation (CD44 high CD8+ T cells [1]): not found to increase
mitochondrial morphology (CD44 high CD8+ T cells [2]): fusion of mitochondria
number of mitochondria per cell (CD44 high CD8+ T cells [2]): decreased
size per mitochondrion (CD44 high CD8+ T cells [2]): increased
structure of cristae (CD44 high CD8+ T cells [2]): damaged in structures
tumor shrinking effect (MC38 cells): enhanced tumor shrinking effect
SRCs of CD8+ T cells (CD8+ T cells): increased
production of ATP, mitochondrial metabolism-dependent (CD8+ T cells): increased
